The source of these data is patent publication US11713309B2, “Solid forms of Cerdulatinib” (Alexion Pharmaceuticals, Inc., priority 2018, dated 2023).

One may read the solubility as how much of the substance goes into solution per volume. Read a low solubility as a poorly soluble substance.

Molecules are shown by their SMILES. Counter-ions that a name gives are not always drawn.

Assay type in all cases: physicochemical
Series [1] in a line: Solubility of Compound I Form I in various solvents.
The nature of series [2]: Slurry competition of free base forms. The following applies: from 5° C. to 50° C. As for the experimental part:
Slurry competition was performed to evaluate the stability of Compound I free base Form II and Type E. A mixture of Compound I free base Form II and Type E were added into 1.0 mL of saturated EtOH or MEK solution (slurry of Form I at 5° C./RT/50° C. overnight). The suspensions were stirred at target temperatures.
Slurry competition was performed to evaluate the stability of free base Form I and Form II. A mixture of free base Form I and Form II were added into 1.0 mL of saturated EtOH or MEK solution (slurry of Form I at 5° C./RT/50° C. overnight). The suspensions were stirred at target temperatures for 3 days.

A short description of series [3]: Thermodynamic aqueous solubility by HPLC. Conditions: HPLC grade water, 25° C., 24 hours, second scale up material. As for the experimental part:
The suspension was equilibrated at 25° C. for 24 hours. The suspension was then passed through a filter into an HPLC vial. The filtrate was then diluted by an appropriate factor. Quantification was executed by HPLC with reference to a standard solution of approximately 1 mg·mL^−1 in acetonitrile:water (1:1). Different volumes of the standard, diluted and undiluted sample solutions were injected. […] HPLC method parameters are described in Table 1 and Table 2.
Analysis was performed on an Agilent 1100 series liquid chromatography, equipped with a UV detector (DAD or VWD) @ 254 nm and using Chemstation Rev.B.01.03 software for data processing.
(§1) The solubility of the salts/co-crystals of Compound I prepared from the second scale up process was analyzed. The materials recovered after the solubility analysis were evaluated by XRPD to observe any form changes.

Series [4] is described as follows: Slurry maturations in various solvents (form reproducibility/stability). The following applies: cycling about 25 to about 50° C., about 4 days. As for the experimental part: A series of slurry maturations in various solvents was performed to further analyze the form reproducibility/stability of the esylate, mesylate, HCl, and sulfate salts/co-crystals of Compound I. The solvents chosen were acetonitrile, EtOAc, ethanol, and IPA. The input materials were the salts/co-crystals of Compound I formed via the second scale up process. About 20 mg of each sample was charged to reflux tubes and heated with temperature cycling between about 25 and about 50° C. for about 4 days. The resulting materials were isolated by filtration and dried in vacuo at about 40° C. The results of the slurry maturations for the resulting HCl and mesylate salts/co-crystals are presented in subsections (a)-(d) below. The data for the resulting esylate and sulfate salts/co-crystals of Compound have been omitted due to notable form variation.

Series [5] is described as follows: XRPD form evaluation of materials recovered after solubility analysis. Conditions: aqueous solubility analysis, second scale up material. Here is the method: as §1
A short description of series [6]: Moisture uptake study of Compound I HCl amorphous at ambient conditions.
Series [7] can be described thus: Gravimetric vapor sorption (GVS) hygroscopicity. As for the experimental part:
Sorption isotherms were obtained using a Hiden Isochema moisture sorption analyser (model IGAsorp), controlled by IGAsorp Systems Software v6.50.48. The sample was maintained at a constant temperature (25° C.) by the instrument controls. The humidity was controlled by mixing streams of dry and wet nitrogen, with a total flow of 250 mL·min^−1. The instrument was verified for relative humidity content by measuring three calibrated Rotronic salt solutions (10-50-88%). The weight change of the sample was monitored as a function of humidity by a microbalance (accuracy+/−0.005 mg). A defined amount of sample was placed in a tared mesh stainless steel basket under ambient conditions. A full experimental cycle consisted of two scans (sorption and desorption) at a constant temperature (25° C.) and 10% RH intervals over a 10-90% range (90 minutes for each humidity level).
The hygroscopicity of the esylate, mesylate, HCl, and sulfate salts/co-crystals of Compound I formed via the first scale up process was analyzed. All hygroscopicity experiments covered a wide range of humidity (0 to about 90% relative humidity) and were performed at about 25° C. to assess behavior.

Series [8] in a line: Thermodynamic pH-solubility profile. The following applies: 7 days of shaking, about 37° C. water bath. The text has this: A thermodynamic pH-solubility profile of Compound I HCl Form I in various buffer or non-buffer solutions is further provided in FIG. 61. FIG. 61 additionally includes the thermodynamic pH-solubility profile of Compound I free base. It is of note that no data is shown in the profile of Compound I free base below a pH of about 2.0, as Compound I free base converted to Compound I HCl Form I below a pH of about 2.0. Similarly, no data is shown in the profile of Compound I HCl Form I above a pH of about 3.0, as Compound I HCl Form I converted to Compound I free base above a pH of about 3.0.

With `CCS(=O)(=O)N1CCN(c2ccc(Nc3ncc(C(N)=O)c(NC4CC4)n3)cc2)CC1` [Compound I Form I, 4-(cyclopropylamino)-2-(4-(4-(ethylsulfonyl)piperazin-1-yl)phenylamino)pyrimidine-5-carboxamide], the “Solubility of Compound I Form I (Observations)” value is on record as below 5 mg in series [1] (25 mg/1 mL Acetone); below 5 mg in series [1] (25 mg/1 mL Acetonitrile); “about 10 mg” in series [1] (25 mg/1 mL DCM); below 5 mg in series [1] (25 mg/1 mL EtOAc); below 5 mg in series [1] (25 mg/1 mL Heptane); below 5 mg in series [1] (25 mg/1 mL IPA). Also, the “Solubility of Compound I Form I (Observations)” value in series [1] (25 mg/1 mL MeOH) is listed as below 5 mg; in series [1] (25 mg/1 mL TBME), below 5 mg; in series [1] (25 mg/1 mL THF), below 5 mg; in series [1] (25 mg/1 mL Toluene), “about 10 mg”.
Consider `CCS(=O)(=O)N1CCN(c2ccc(Nc3ncc(C(N)=O)c(NC4CC4)n3)cc2)CC1` [Compound I Form II, 4-(cyclopropylamino)-2-(4-(4-(ethylsulfonyl)piperazin-1-yl)phenylamino)pyrimidine-5-carboxamide], for which, in series [2], the “Relative thermodynamic stability (slurry competition with Form I)” value is listed as “more thermodynamically stable” and the “Relative thermodynamic stability (slurry competition with Type E)” value was “more thermodynamically stable than Type E”.
`CCS(=O)(=O)N1CCN(c2ccc(Nc3ncc(C(N)=O)c(NC4CC4)n3)cc2)CC1` [Compound I HCl Form II, 4-(cyclopropylamino)-2-(4-(4-(ethylsulfonyl)piperazin-1-yl)phenylamino)pyrimidine-5-carboxamide]: the solubility in series [3] (listed as Comp. I HCl (formed using dry HCl) Form II) was found to be 120 µg/mL. The “Form after slurry maturation (XRPD)” value in series [4] (IMA) was “conversion to Compound I Form I”; in series [4] (IPA), “conversion to Compound I Form I, yet retains some mixed features”; in series [4] (acetonitrile and EtOAc), “mixture of Compound I Form I, Compound I Form II, and possibly other forms”. In addition, the “Form change on solubility analysis (XRPD post vs pre)” value (“Form change on solubility analysis” for short) in series [5] is “form change to Compound I HCl Form I”.
`CCS(=O)(=O)N1CCN(c2ccc(Nc3ncc(C(N)=O)c(NC4CC4)n3)cc2)CC1` [Compound I HCl amorphous, 4-(cyclopropylamino)-2-(4-(4-(ethylsulfonyl)piperazin-1-yl)phenylamino)pyrimidine-5-carboxamide]: in series [6], the “Crystallinity on exposure to ambient conditions” value was “gradual increase in crystallinity”. Besides, in series [7] (above about 40% RH, most markedly above about 80% RH), the GVS mass change result is “large increase in mass”.
With `CCS(=O)(=O)N1CCN(c2ccc(Nc3ncc(C(N)=O)c(NC4CC4)n3)cc2)CC1` [Compound I mesylate Form III, 4-(cyclopropylamino)-2-(4-(4-(ethylsulfonyl)piperazin-1-yl)phenylamino)pyrimidine-5-carboxamide], in series [3] (listed as Comp. I Mesylate Similar to Form III), the solubility turned out to be 2320 µg/mL. Further, the “Form after slurry maturation (XRPD)” value in series [4] (acetonitrile, EtOAc, ethanol, IPA, listed as Compound I mesylate (mono-mesylate) Form III) is “mixture of forms comprising Compound I mesylate Form III and other forms”. The “Form change on solubility analysis” value in series [5] is recorded as “same form, which is different than the forms of either input material”.
For the compound `CCS(=O)(=O)N1CCN(c2ccc(Nc3ncc(C(N)=O)c(NC4CC4)n3)cc2)CC1` [Compound I sulfate Form I, 4-(cyclopropylamino)-2-(4-(4-(ethylsulfonyl)piperazin-1-yl)phenylamino)pyrimidine-5-carboxamide], in series [3] (listed as Comp. I Sulfate Similar to Form I), the solubility worked out at 10 µg/mL. Besides, the “Form change on solubility analysis” value in series [5] (listed as Compound I sulfate prepared from IPA) is “form change to Compound I sulfate Form II”.
Consider `CCS(=O)(=O)N1CCN(c2ccc(Nc3ncc(C(N)=O)c(NC4CC4)n3)cc2)CC1` [Compound I sulfate Form II, 4-(cyclopropylamino)-2-(4-(4-(ethylsulfonyl)piperazin-1-yl)phenylamino)pyrimidine-5-carboxamide], for which the solubility in series [3] (listed as Comp. I Sulfate Similar to Form II) amounted to 7 µg/mL. The GVS water absorbed result in series [7] (25° C., first scale up material, listed as Comp. I Sulfate Similar to Form II) is listed as “About 0.5 mg”. In addition, the “GVS total weight loss” value in series [7] (dried to 0% RH) is “about 5.9%”. In series [7] (exposure to humidity 0 to about 90% RH, about 25° C., listed as crystalline Compound I sulfate sample), the “Crystalline form by XRPD post GVS analysis” value is listed as “slightly increased the crystallinity”. Besides, the “Hygroscopicity (qualitative)” value in series [7] (second scale up material) is recorded as “facile pick-up of surface moisture”. Moreover, the “GVS gradual weight gain” value in series [7] (up to about 80% RH) is “about 4.2%”. Also, in series [5] (listed as Compound I sulfate prepared from water), the “Form change on solubility analysis” value is listed as “no form change”.
For `CCS(=O)(=O)N1CCN(c2ccc(Nc3ncc(C(N)=O)c(NC4CC4)n3)cc2)CC1` [Compound I, 4-(cyclopropylamino)-2-((4-(4-(ethylsulfonyl)piperazin-1-yl)phenyl)amino)pyrimidine-5-carboxamide], the “pH range in which Compound I free base converted to Compound I HCl Form I” value in series [8] is on record as below 2.0.
